Source: ChEMBL document CHEMBL1201862, “PubChem BioAssay data set” (2004)
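These data come from cells grown in 96-well plates and exposed to compound for 48 hours at five concentrations. The concentration for 50% growth inhibition is given as GI50.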 Calls of active or inactive are those of the source. Rule as the data show it: active = GI50 up to about 1.1 µM and inactive = higher.

Key:
Experiment in all cases: NCI-60 cell line screen, 48 h
ACHN = system: ACHN
COLO 205 = system: COLO 205
HCT-116 = system: HCT-116
HL-60 = system: HL-60
HOP-62 = system: HOP-62
K562 = system: K562
KM12 = system: KM12
M14 = system: M14
MCF7 = system: MCF7
NCI-H23 = system: NCI-H23
NCI-H522 = system: NCI-H522
OVCAR-3 = system: OVCAR-3
OVCAR-8 = system: OVCAR-8
SK-MEL-2 = system: SK-MEL-2
SNB-19 = system: SNB-19
SNB-75 = system: SNB-75
SR = system: SR
UO-31 = system: UO-31
RXF 393 = system: RXF 393
A498 = system: A498

SMILES | GI50 (ACHN) | GI50 (COLO 205) | GI50 (HCT-116) | GI50 (HL-60) | GI50 (HOP-62) | GI50 (K562) | GI50 (KM12) | GI50 (M14) | GI50 (MCF7) | GI50 (NCI-H23) | GI50 (NCI-H522) | GI50 (OVCAR-3) | GI50 (OVCAR-8) | GI50 (SK-MEL-2) | GI50 (SNB-19) | GI50 (SNB-75) | GI50 (SR) | GI50 (UO-31) | GI50 (RXF 393) | GI50 (A498)
O=C1C=C(Sc2ccccc2)c2nccc3c2c1nc1ccccc13 | 19.3 µM (inactive) | 16.6 µM (inactive) | 15.1 µM (inactive) | 2.08 µM (inactive) | 14 µM (inactive) | 0.0234 µM (active) | 16.7 µM (inactive) | 13.3 µM (inactive) | 14.9 µM (inactive) | 23.6 µM (inactive) | 2.33 µM (inactive) | 3.35 µM (inactive) | 18.1 µM (inactive) | 14.2 µM (inactive) | 37.2 µM (inactive) | 33.3 µM (inactive) | 5.92 µM (inactive) | 12.8 µM (inactive) |  | 
N#Cc1c(NC(=S)NC(=O)c2ccccc2)nc2c(c1-c1ccccc1)CCCC2 |  | > 100 µM (inactive) | > 100 µM (inactive) | > 100 µM (inactive) | 45.3 µM (inactive) | > 100 µM (inactive) | > 100 µM (inactive) | > 100 µM (inactive) | 58.9 µM (inactive) | > 100 µM (inactive) |  | > 100 µM (inactive) | 36.6 µM (inactive) |  | > 100 µM (inactive) | 17.1 µM (inactive) | > 100 µM (inactive) | 88.7 µM (inactive) | 17.8 µM (inactive) | 
CSCCC(NC(=O)OCc1ccccc1)P(=O)(O)c1ccccc1 (stereo unspecified) | > 100 µM (inactive) | > 100 µM (inactive) | > 100 µM (inactive) | > 100 µM (inactive) | > 100 µM (inactive) | > 100 µM (inactive) |  | > 100 µM (inactive) | > 100 µM (inactive) | > 100 µM (inactive) | > 100 µM (inactive) | > 100 µM (inactive) | > 100 µM (inactive) | > 100 µM (inactive) | > 100 µM (inactive) | > 100 µM (inactive) | > 100 µM (inactive) | > 100 µM (inactive) |  | 
CC(C)(C)/N=c1/n(C(C)(C)C)oc(=O)n1C(C)(C)C | > 100 µM (inactive) | > 100 µM (inactive) | > 100 µM (inactive) | > 100 µM (inactive) | > 100 µM (inactive) | > 100 µM (inactive) | > 100 µM (inactive) | > 100 µM (inactive) | > 100 µM (inactive) | 81.1 µM (inactive) |  | > 100 µM (inactive) | > 100 µM (inactive) | > 100 µM (inactive) | > 100 µM (inactive) | 99.5 µM (inactive) | > 100 µM (inactive) | > 100 µM (inactive) | > 100 µM (inactive) | > 100 µM (inactive)
CN(C)c1ccc(C2CC(=O)CC(c3ccc(N(C)C)cc3)C23C(=O)NC(=O)NC3=O)cc1 (stereo unspecified) | > 25 µM (inactive) | > 25 µM (inactive) | > 25 µM (inactive) | > 25 µM (inactive) | 18.2 µM (inactive) | 0.025 µM (active) | > 25 µM (inactive) | > 25 µM (inactive) | > 25 µM (inactive) | > 25 µM (inactive) | 17.6 µM (inactive) | > 25 µM (inactive) | 14.4 µM (inactive) | 16.7 µM (inactive) | 9.14 µM (inactive) | 9.79 µM (inactive) | > 25 µM (inactive) | > 25 µM (inactive) | 15.8 µM (inactive) | 
Cc1ccc(C#CS(=O)(=O)C(F)(F)F)cc1 |  | > 100 µM (inactive) | > 100 µM (inactive) | > 31.6 µM (inactive) | > 100 µM (inactive) | > 100 µM (inactive) | > 100 µM (inactive) |  | > 100 µM (inactive) | > 100 µM (inactive) | > 100 µM (inactive) | > 100 µM (inactive) | > 100 µM (inactive) | > 100 µM (inactive) | > 100 µM (inactive) | > 100 µM (inactive) |  | > 100 µM (inactive) | > 100 µM (inactive) | > 100 µM (inactive)
